Experimental data published in patent US20110065208A1, “DETERMINATION AND ESTIMATION OF ABSORPTION AND DISTRIBUTION OF SUBSTANCES IN BRAIN TISSUE” (SOVICELL GMBH, priority 2008, published 2011).
Where two headings read alike, the source gives them in different places.

How the values were obtained:
[1] = Brain lipid-water partition coefficient log MAbrain (membrane affinity) on immobilized brain lipid membranes; assay type: physicochemical; details: for logMA_brain: Table 6, parameter set for free fraction in brain
Experimental: 440 mg of a brain lipid extract (Avanti Polar Lipids Inc., USA) are dissolved in 50 mL of chloroform. This solution is evaporated under reduced pressure in a glass flask in a rotating rotary evaporator, wherein a thin lipid film deposits on the wall.
The lipid film is swollen overnight in a water vapor atmosphere; subsequently, 88 mL of a buffer (20 mM HEPES, pH 7.0, 30 mM NaCl, 2 mM CaCl2) are added, and the lipid film is vesiculated by means of a high-pressure homogenizer.
5 g of the carrier material provided above are added to the vesicle solution thus produced and incubated overnight. Excess lipid is removed by washing three times with buffer (20 mM HEPES, pH 7.0, 30 mM NaCl, 2 mM CaCl2). Finally, this is followed by rebuffering in PBS (phosphate-buffered saline, 10 mM sodium phosphate, 0.9% NaCl, pH 7.4) and filling up to 25 mL with buffer. The suspension obtained is then used to determine the brain lipid-water partition coefficient, as described below.
To determine the brain lipid-water partition coefficient, a total of 5 wells of a 96-well microtiter plate are filled as follows: • Well 1: 405 μL PBS • Well 2: 375 μL PBS+30 μL suspension (see 2.) • Well 3: 357 μL PBS+48 μL suspension (see 2.) • Well 4: 338 μL PBS+77 μL suspension (see 2.) • Well 5: 405 μL PBS.
To each of these wells, 45 μL of a 500 μM solution of trifluoperazine in PBS/10% DMSO are added, and after mixing by resuspension, the solid body is separated from the supernatant by sedimentation. The concentration of the substance in the supernatant is quantified by UV measurement, and the brain lipid-water partition coefficient log MAbrain is calculated through the following equation: […]
In the equation are: • Vtotal Total volume per well • Vlipid Lipid volume per well • ctotal Substance concentration of wells 1 and 5 without binding partner • cwater Substance concentration in the supernatant of wells 2-4 with binding partner.
To determine the brain lipid-water partition coefficient, two 96-well microtiter plates are filled row by row as follows: • Row 1: 405 μL PBS • Row 2: 375 μL PBS+30 μL suspension (see 2.) • Row 3: 357 μL PBS+48 μL suspension (see 2.) • Row 4: 338 μL PBS+77 μL suspension (see 2.) • Row 5: 285 μL PBS+120 μL suspension (see 2.) • Row 6: 210 μL PBS+195 μL suspension (see 2.) • Row 7: 105 μL PBS+300 μL suspension (see 2.) • Row 8: 405 μL PBS.
A broad binding range is covered by this filling of the plates. […] After mixing by resuspension, the solid body is separated from the supernatant by sedimentation.
The concentration of the substance in the supernatant is quantified by HPLC, and the brain lipid-water partition coefficient log MAbrain is calculated through the abovementioned equation (4), wherein, in this case, Vtotal is the total volume per well, Vlipid is the lipid volume per well, ctotal is the substance concentration of rows 1 and 8 without binding partner, and cwater is the substance concentration in the supernatant of wells 2-7 with binding partner.

[2] = target: HSA (human serum albumin) (Homo sapiens, UniProt P02768); assay: HSA binding constants (TRANSIL HSA Binding Kit)
Text: In the equation are: • [drug]bound: Concentration of bound substance • [drug]free: Concentration of free substance in the supernatant • [protein]: Protein concentration in the respective wells.

[3] = test system: T1, AGP (α1-acid glycoprotein); assay: AGP binding constants (TRANSIL AGP Binding Kit)
T1 construct: fused on or other part: immobilised on silica beads (TRANSIL solid support)

[4] = log K^B/F, bound to free fraction in blood plasma calculated from KD^HSA and KD^AGP; assay type: in vitro ADME; details: Table 4; calculated with [HSA] 588.2 μM, [AGP] 24.4 μM
Text: The log K^B/F value represents the logarithmized ratio of the bound fraction to the free fraction in blood plasma, which has been approximately calculated from the dissociation constants KD^AGP and KD^HSA according to:
[formula] • fu Free substance concentration in plasma • [drug]total^plasma Total substance concentration in plasma • [HSA]

[5] = cited from earlier work
[6] = log BB estimated by QSAR equation (9); details: Table 5; validation set, calculated by equation (9)
Experimental: To estimate the plasma-brain partition coefficients, a multilinear regression was carried out according to the equation:
log BB=A*log MAbrain+B*PSA+C*MW+D*log K^B/F+E. (6)

[7] = Table 6; free fraction in brain; cited from earlier work
[8] = Table 1, PBS pH 7.4, quantified by HPLC
[9] = Table 4, repeated parameter set
[10] = Table 4, test set for multilinear regression
[11] = Table 5, values from the literature

Chain of HSA (human serum albumin) (P02768 25-609): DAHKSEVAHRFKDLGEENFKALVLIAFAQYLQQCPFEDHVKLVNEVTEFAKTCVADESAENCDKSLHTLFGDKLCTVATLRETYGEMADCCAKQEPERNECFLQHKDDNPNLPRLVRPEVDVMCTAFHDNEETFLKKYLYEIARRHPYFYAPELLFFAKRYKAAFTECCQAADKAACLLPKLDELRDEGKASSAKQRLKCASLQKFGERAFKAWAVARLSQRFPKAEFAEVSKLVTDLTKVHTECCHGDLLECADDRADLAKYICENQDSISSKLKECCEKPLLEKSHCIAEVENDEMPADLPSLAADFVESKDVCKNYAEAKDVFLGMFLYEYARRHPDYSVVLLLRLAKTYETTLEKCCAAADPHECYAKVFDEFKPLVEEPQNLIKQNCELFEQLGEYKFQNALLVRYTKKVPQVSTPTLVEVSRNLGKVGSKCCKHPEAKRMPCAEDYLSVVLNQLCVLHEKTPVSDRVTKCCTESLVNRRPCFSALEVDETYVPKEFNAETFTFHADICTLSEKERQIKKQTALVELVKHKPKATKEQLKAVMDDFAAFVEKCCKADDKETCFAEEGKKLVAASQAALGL

Row | SMILES | logMAbrain [1, 8] | logMAbrain [1, 9] | Kd [2] | Kd [3] | logK^B/F [4] | logBB [5, 10] | fu_brain [7] | also measured
1 | CC(=O)Oc1ccccc1C(=O)O [Acetylsalicylic acid, acetylsalicylic acid] | 1.40 | 1.40 | 360 µM | 460 µM | 0.23 | −0.5 | – | –
2 | CN(C)CCC=C1c2ccccc2CCc2ccccc21 [Amitryptilline, amitryptilline] | – | – | – | – | – | – | 0.009 | logMA_brain [1]: 2.94; logBB_calc [6]: 1.38; logBB [5, 11]: 0.87
3 | Cc1cc(=O)n(-c2ccccc2)n1C [Antipyrine, antipyrine] | 1.33 | 1.33 | 2700 µM | – | −0.54 | −0.1 | – | Kd ([3]; Table 3, quantified by HPLC, read-out: KD^AGP): 380 µM
4 | Cn1c(=O)c2c(ncn2C)n(C)c1=O [Caffeine, caffeine] | 1.36 | 1.36 | – | 580 µM | – | – | 0.52 | logMA_brain [1]: 1.36
5 | NC(=O)N1c2ccccc2C=Cc2ccccc21 [Carbamazepine, carbamazepine] | – | – | – | – | – | – | 0.1185 | logMA_brain [1]: 1.79; logBB_calc [6]: −0.09; logBB [5, 11]: 0
6 | CN(C)CCCN1c2ccccc2Sc2ccc(Cl)cc21 [Chlorpromazine, chlorpromazine] | 3.70 | 3.70 | – | 0.72 µM | – | – | 0.002 | logMA_brain [1]: 3.70
7 | CN/C(=N/CCSCc1nc[nH]c1C)NC#N [Cimetidine, cimetidine] | 1.80 | 1.80 | 920 µM | 250 µM | −0.13 | −1.42 | – | –
8 | Clc1cccc(Cl)c1N=C1NCCN1 [Clonidine, clonidine] | 1.30 | 1.30 | 1900 µM | 69 µM | −0.17 | 0.11 | – | –
9 | CNCCCN1c2ccccc2CCc2ccccc21 [Desipramine, desipramine] | – | – | 200 µM | 5.1 µM | – | 1.2 | – | –
10 | CNCCC(Oc1ccc(C(F)(F)F)cc1)c1ccccc1 (stereo not shown) [Fluoxetine, fluoxetine] | – | – | – | – | – | – | 0.004 | logMA_brain [1]: 3.52; logBB_calc [6]: 1.29
11 | O=C(CCCN1CCC(O)(c2ccc(Cl)cc2)CC1)c1ccc(F)cc1 [Haloperidol] | – | – | – | – | – | – | 0.011 | logMA_brain [1]: 2.7
12 | CC(C)Cc1ccc(C(C)C(=O)O)cc1 (stereo not shown) [Ibuprofen, ibuprofen] | 1.70 | 1.70 | – | 670 µM | 3.14 | −0.18 | – | –
13 | CN(C)CCCN1c2ccccc2CCc2ccccc21 [Imipramine, imipramine] | – | – | 220 µM | 3.1 µM | – | 0.83 | – | –
14 | COc1ccc2c(c1)c(CC(=O)O)c(C)n2C(=O)c1ccc(Cl)cc1 [Indomethacin, indomethacin] | 2.30 | 2.30 | – | 43 µM | 2.97 | −1.26 | – | –
15 | CCN(CC)CC(=O)Nc1c(C)cccc1C [Lidocaine, lidocaine] | – | – | – | – | – | – | – | logBB_calc [6]: −0.08
16 | CN1CCN2c3ccccc3Cc3ccccc3C2C1 (stereo not shown) [Mianserin, mianserin] | – | – | – | – | – | – | – | logBB_calc [6]: 1.47; logBB [5, 11]: 0.99
17 | CCCCC1C(=O)N(c2ccccc2)N(c2ccccc2)C1=O [Phenylbutazone, phenylbutazone] | – | – | – | 70 µM | – | −0.52 | – | –
18 | O=C1NC(=O)C(c2ccccc2)(c2ccccc2)N1 [Phenytoin] | – | – | – | – | – | – | 0.082 | –
19 | CCN(CC)CCOC(=O)c1ccc(N)cc1 [Procaine, procaine] | – | – | – | – | – | – | – | logBB_calc [6]: −0.41; logBB [5, 11]: 0.05
20 | CN(C)CCCN1c2ccccc2Sc2ccccc21 [Promazine, promazine] | 3.20 | 3.20 | 99 µM | 1.6 µM | 1.33 | 1.23 | – | –
21 | CC(C)NCC(O)COc1cccc2ccccc12 (stereo not shown) [Propranolol, propranolol] | 2.70 | 2.70 | 610 µM | 5.4 µM | 0.74 | 0.64 | – | –
22 | C=C[C@H]1C[N@@]2CC[C@H]1C[C@@H]2[C@@H](O)c1ccnc2ccc(OC)cc12 [Quinidine, quinidine] | 2.10 | 2.10 | – | 13 µM | – | – | – | –
23 | CNC(=C[N+](=O)[O-])NCCSCc1ccc(CN(C)C)o1 [Ranitidine, ranitidine] | – | – | – | – | – | – | – | logBB [5, 11]: −1.23
24 | O=C(O)c1ccccc1O [Salicylic acid, salicylic acid] | 1.30 | 1.30 | – | 640 µM | 1.37 | – | – | –
25 | Cn1c(=O)c2[nH]cnc2n(C)c1=O [Theophylline, theophylline] | – | – | – | 810 µM | – | – | – | –
26 | CSc1ccc2c(c1)N(CCC1CCCCN1C)c1ccccc1S2 (stereo not shown) [Thioridazine] | – | – | – | – | – | – | 0.001 | logMA_brain [1]: 3.74
27 | CN1CCN(CCCN2c3ccccc3Sc3ccc(C(F)(F)F)cc32)CC1 [Trifluoperazine, trifluoperazine] | 4.70 | 4.70 | 12 µM | 0.25 µM | 2.17 | 1.44 | 0.0007 | logMAbrain ([1]; PBS pH 7.4, quantified by UV measurement, 5 wells): 4.7; logMA_brain [1]: 4.70
